Values of other authors as cited in article PMC12042267, “Expanding the Family of Monosubstituted 15-Membered Pyridine-Based Macrocyclic Ligands for Mn(II) Complexation in the Context of MRI” (Inorganic Chemistry, 2025).
Read-outs that look alike come from different tables or passages of the source.

Experiments:
[1] = Mn(II) complex, cited from earlier work; for dissociation half-life t1/2: calculated for pH 7.4
[2] = Ca(II), cited from earlier work
[3] = Cu(II), cited from earlier work
[4] = cited from earlier work; for log KML / log KHML / log KML(OH): Mn(II)
[5] = cited from earlier work
[6] = Zn(II), cited from earlier work
[7] = Mn(II) complex, cited from earlier work; for dissociation half-life t1/2: calculated for pH 7.4; remark: listed apart in the source
[8] = cited from earlier work; remark: listed apart in the source
[9] = 0.15 NaCl and 2 mM concentration ref 21, 58; cited from earlier work
[10] = 298 K and 0.47 T ref 21; cited from earlier work
[11] = I = 0.15 M NaCl, 25 °C, log KMnHL in Table 5 ref 21
[12] = pH 7.4, cMn = clig = 10^–5 M ref 21

## O=C(O)CN1CCNCc2cccc(n2)CN(CC(=O)O)CC1 [3,6-PC2A]
[1]; Cu(II) transmetalation ref 21
  k1: 70 ± 1 M^–1 s^–1
  k2: (1.5 ± 0.4) × 10^5 M^–2 s^–1
  k3: (2.6 ± 0.7) × 10^–2 M^–1 s^–1
[1]; Cu(II) ref 21
  dissociation half-life t1/2: 63.2 h
[2]; I = 0.15 M NaCl, 25 °C ref 21
  log KHML: 5.27
  log KML: 9.57
[3]; I = 0.15 M NaCl, 25 °C ref 21
  log KHML: 2.37
  log KML: 24.09
[4]; I = 0.15 M NaCl, 25 °C ref 21
  log KML: 15.53
[4]; [11]
  log KHML: 3.06
[4]; [12]
  pMn: 8.09
[5]; 1.0 M NaCl ref 21
  log K1^H: 10.31
  log K2^H: 8.59
  log K3^H: 3.92
  log K4^H: 1.56
[5]; I = 0.15 M NaCl, 25 °C ref 21
  log K1^H: 10.72
  log K2^H: 8.37
  log K3^H: 3.81
  log K4^H: 1.26
[6]; I = 0.15 M NaCl, 25 °C ref 21
  log KHML: 2.36
  log KML: 20.37

## O=C(O)CN1CCOCCN(CC(=O)O)Cc2cccc(n2)C1 [3,9-OPC2A]
[1]; Cu(II) transmetalation ref 26
  k0: (8.6 ± 1.1) × 10^–6 s^–1
  k1: 2.81 ± 0.07 M^–1 s^–1
[1]; Cu(II) ref 26
  dissociation half-life t1/2: 21.9 h
[2]; I = 0.15 M NaCl, 25 °C ref 26
  log KML: 8.27
[3]; I = 0.15 M NaCl, 25 °C ref 26
  log KHML: 1.92
  log KML: 18.41
  log KML(OH): -10.50
[4]; I = 0.15 M NaCl, 25 °C ref 26
  log KML: 13.03
  log KML(OH): -11.49
[4]; pH 7.4, cMn = clig = 10^–5 M ref 26
  pMn: 8.69
[5]; I = 0.15 M NaCl, 25 °C ref 26
  log K1^H: 7.73
  log K2^H: 7.66
  log K3^H: 2.13
[6]; I = 0.15 M NaCl, 25 °C ref 26
  log KHML: 2.08
  log KML: 14.81
  log KML(OH): -10.95

## O=C(O)CN1CCNCCN(CC(=O)O)Cc2cccc(n2)C1 [3,9-PC2A]
[1]; Cu(II) transmetalation ref 21
  k1: 221 ± 5 M^–1 s^–1
  k3: (3.6 ± 0.7) × 10^–2 M^–1 s^–1
[1]; Cu(II) ref 21
  dissociation half-life t1/2: 21.0 h
[2]; I = 0.15 M NaCl, 25 °C ref 21
  log KHML: 5.08
  log KML: 9.92
[3]; I = 0.15 M NaCl, 25 °C ref 21
  log KHML: 2.12
  log KML: 23.58
[4]; I = 0.15 M NaCl, 25 °C ref 21
  log KML: 17.09
[4]; [11]
  log KHML: 2.14
[4]; [12]
  pMn: 8.64
[5]; 0.1 M KCl ref 42
  log K1^H: 12.50
  log K2^H: 5.75
  log K3^H: 3.28
  log K4^H: 2.38
[5]; I = 0.15 M NaCl, 25 °C ref 21
  log K1^H: 12.25
  log K2^H: 5.97
  log K3^H: 3.47
  log K4^H: 1.99
[6]; I = 0.15 M NaCl, 25 °C ref 21
  log KHML: 2.74
  log KML: 19.49

## c1cc2nc(c1)CNCCNCCNCCNC2 [15-pyN5]
[7]; Zn(II) transmetalation ref 28
  k1: 423 M^–1 s^–1
  k2: 1.0 × 10^7 M^–2 s^–1
  k4: 1.7 × 10^4 M^–2 s^–1
[7]; Zn(II) ref 28
  dissociation half-life t1/2: 11.0 h
[2]; 0.1 M NMe4Cl ref 28
  log KML: 2.97
[3]; 0.1 M NMe4Cl ref 28
  log KML: 21.84
  log KML(OH): -12.30
[4]; 0.1 M NMe4Cl ref 28
  log KML: 10.89
  log KML(OH): -11.52
[4]; 0.1 M NMe4Cl, log KMnHL in Table 5 ref 28
  log KHML: 4.27
[4]; 0.1 M NaClO4 ref 40
  log KHML: 4.20
  log KML: 11.64
[4]; 0.1 M NaClO4 ref 41
  log KHML: 4.51
  log KML: 11.12
[4]; pH 7.4, cMn = clig = 10^–5 M ref 28
  pMn: 6.37
[4]; pH 7.4, cMn = clig = 10^–5 M ref 40
  pMn: 6.60
[4]; pH 7.4, cMn = clig = 10^–5 M ref 41
  pMn: 6.59
[5]; 0.1 M NMe4Cl ref 28
  log K1^H: 9.40
  log K2^H: 8.54
  log K3^H: 5.28
[5]; 0.1 NaClO4 ref 40
  log K1^H: 9.43
  log K2^H: 8.80
  log K3^H: 5.28
[5]; 0.1 NaClO4 ref 41
  log K1^H: 9.11
  log K2^H: 8.82
  log K3^H: 5.27
[6]; 0.1 M NMe4Cl ref 28
  log KHML: 2.45
  log KML: 16.27
  log KML(OH): -11.18

## O=C(O)CN1CCOCCOCCNCc2cccc(n2)C1 [L1]
[7]; Zn(II) transmetalation ref 30
  k0: (4.1 ± 0.3) × 10^–3 s^–1
  k1: 1691 ± 41 M^–1 s^–1
[7]; Zn(II) ref 30
  dissociation half-life t1/2: 0.0467 h
[2]; I = 0.15 M NaCl, 25 °C ref 30
  log KHML: 6.37
  log KML: 5.51
[3]; I = 0.15 M NaCl, 25 °C ref 30
  log KHML: 2.67
  log KML: 15.86
  log KML(OH): -9.7
[4]; I = 0.15 M NaCl, 25 °C ref 30
  log KML: 11.06
[4]; I = 0.15 M NaCl, 25 °C, log KMnHL in Table 5 ref 30
  log KHML: 3.82
[4]; pH 7.4, cMn = clig = 10^–5 M ref 30
  pMn: 6.95
[5]; I = 0.15 M NaCl, 25 °C ref 30
  log K1^H: 8.86
  log K2^H: 8.03
  log K3^H: 1.9
[6]; I = 0.15 M NaCl, 25 °C ref 30
  log KHML: 2.80
  log KML: 13.12

## O.O=C([O-])CN1CCNCc2cccc(n2)CN(CC(=O)[O-])CC1.[Mn+2] [Mn(3,6-PC2A)]
[8]
  kex^298: 14.0 ± 2.5 10^7 s^–1
  ΔH^‡: 38.2 ± 3.9 kJ mol^–1
[9]
  Eox: +862 mV
[10]
  r1p298: 2.72 mM^–1 s^–1
